Laboratory results: publication PMC7765920 (Molecules, 2020)
Read-outs that look alike come from different tables or passages of the source.

Legend:
[1] = molecular target: T1, human recombinant MAO-A (Homo sapiens, UniProt P21397); experiment: MAO-GLO luminescence assay of MAO-A catalytic activity; assay type: biochemical; settings: read-out: MAO-A residual activity
T1 sequence (P21397 1-527): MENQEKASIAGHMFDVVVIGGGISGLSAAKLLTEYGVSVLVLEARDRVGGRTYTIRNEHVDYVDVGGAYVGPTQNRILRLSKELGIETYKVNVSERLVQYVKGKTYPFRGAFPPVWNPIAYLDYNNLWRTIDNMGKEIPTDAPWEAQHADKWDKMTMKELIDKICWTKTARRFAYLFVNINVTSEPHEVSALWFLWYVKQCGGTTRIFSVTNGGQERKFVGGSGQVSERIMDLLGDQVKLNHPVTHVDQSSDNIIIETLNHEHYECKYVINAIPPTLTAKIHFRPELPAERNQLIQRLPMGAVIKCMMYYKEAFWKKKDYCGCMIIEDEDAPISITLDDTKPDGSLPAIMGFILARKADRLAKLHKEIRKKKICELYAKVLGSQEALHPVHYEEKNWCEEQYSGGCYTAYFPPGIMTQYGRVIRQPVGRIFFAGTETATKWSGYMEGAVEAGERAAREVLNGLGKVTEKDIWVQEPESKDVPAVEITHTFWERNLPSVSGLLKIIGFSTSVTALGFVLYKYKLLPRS
Experimental: (§1) Optimization of the compounds, however, aimed predominantly at elimination of MAO-A-inhibitory activity while keeping DYRK1A inhibitory potency, and not at achieving high selectivity for DYRK1A over CLK1. The tests were performed as described by us before in detail. Due to the very large number of test compounds (more than 60), a first screening was performed at a single inhibitor concentration of 1 µM.
(§2) Inhibitors were dissolved in DMSO at a concentration of 10 mM and stored at […]. Working solutions were prepared to achieve a final concentration of 1 µM in the enzyme assays.
Catalytic activity of monoamine oxidase A (MAO-A) was measured by using the luminescence-based MAO-GLO^TM Assay from Promega. Recombinant MAO-A converts a luminogenic MAO substrate into luciferin, which is, in turn, luminometrically detected in a luciferase reaction. The amount of light produced is directly proportional to MAO activity. […] Inhibitory effects of the tested compounds were calculated relative to the activity of control reactions that were run in the absence of inhibitors.

[2] = molecular target: T2, GST-DYRK1A-ΔC (amino acids 1–499 of rat DYRK1A) (Rattus norvegicus, UniProt Q63470); experiment: Kinase-GLO luminescent assay of DYRK1A catalytic activity; assay type: biochemical; settings: read-out: DYRK1A residual activity
T2 construct: containing amino acids 1–499 of rat DYRK1A; made in house; host or cells: E. coli
Experimental: as §1, §2
(§3) Recombinant kinases were purified from E. coli as GST (glutathione S-transferase) fusion constructs by affinity adsorption to glutathione-Sepharose. […] Catalytic activity of the kinases was measured with the help of the Kinase-GLO^TM Luminescent Assay from Promega. Assays were performed in a total volume of 10 μL in kinase buffer (25 mM Hepes pH 7.4, 0.5 mM DTT, 5 mM MgCl2, 5 μM ATP) with appropriate peptide substrates (20 μM DYRKtide for the DYRKs and 100 μM DYRKtide for HIPK2, […]; or 100 μM RS peptide for CLK1, […]). Kinases amounts in the assays were adjusted so that approximately 90% of the ATP in the assay was consumed in control samples without inhibitor. Kinase reactions were incubated at room temperature for 30 min before 10 μL Kinase-GLO reagent was added for luminometric measurement of the ATP that was not consumed by the kinases. After incubation at room temperature for an additional 10 min, luminescence was recorded for 1 s (Berthold Orion Microplate Luminometer). ATP consumption in the control samples without inhibitor was set as 100% catalytic activity, and the inhibitory effects of the test compounds were calculated relative to this value.

[3] = molecular target: T3, GST-CLK1cat (amino acids 141–484 of human CLK1) (Homo sapiens, UniProt P49759); experiment: Kinase-GLO luminescent assay of CLK1 catalytic activity; assay type: biochemical; settings: read-out: CLK1 residual activity
T3 construct: containing amino acids 141–484 of human CLK1; made in house; host or cells: E. coli
T3 sequence (P49759 141-484): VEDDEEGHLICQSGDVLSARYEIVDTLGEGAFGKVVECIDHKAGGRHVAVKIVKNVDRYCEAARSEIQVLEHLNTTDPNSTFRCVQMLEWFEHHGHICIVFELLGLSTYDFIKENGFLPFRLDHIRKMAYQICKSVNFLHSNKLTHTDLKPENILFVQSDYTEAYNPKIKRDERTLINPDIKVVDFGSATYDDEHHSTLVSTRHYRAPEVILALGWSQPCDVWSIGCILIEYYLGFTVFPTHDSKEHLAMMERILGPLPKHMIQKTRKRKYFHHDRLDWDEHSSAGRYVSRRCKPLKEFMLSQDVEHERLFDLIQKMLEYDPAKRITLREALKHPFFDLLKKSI
Experimental: as §1, §2, §3

[4] = molecular target: T1, human recombinant MAO-A; parameters: method as in PMID 26192590; settings: 95% confidence intervals in parentheses; cited from earlier work
[5] = tested on: GST-DYRK1A-ΔC (amino acids 1–499 of rat DYRK1A); experiment: Kinase-GLO luminescent assay of DYRK1A catalytic activity; assay type: biochemical; settings: ratio of the MAO-A and DYRK1A IC50 values of Table 2
[6] = tested on: DYRK2; settings: compared with DYRK1A/DYRK1B; cited from earlier work
[7] = tested on: DYRK3; settings: compared with DYRK1A/DYRK1B; cited from earlier work
[8] = tested on: DYRK1B; settings: ATP competitive; cited from earlier work
[9] = tested on: DYRK4; settings: cited from earlier work
[10] = tested on: DYRK1A; settings: ATP competitive; cited from earlier work
[11] = Solubility as observed in the enzyme assays; settings: could not be analyzed properly in the enzyme assays
[12] = tested on: MAO-A; parameters: method as in PMID 21183355; settings: compared with harmine; cited from earlier work
[13] = 1 µM inhibitor concentration, residual activity relative to control without inhibitor

Row | SMILES | remaining activity at 1 µM [1, 13] | remaining activity at 1 µM [2, 13] | remaining activity at 1 µM [3, 13] | other results
1 | COc1ccc2c3ccnc(C)c3n(CCN3CCOCC3)c2c1 [AnnH53, 4-[2-(7-Methoxy-1-methyl-9H-pyrido[3,4-b]indol-9-yl)-ethyl]morpholine] | 70% | 33% | 77% | melting point: 183 °C
2 | COc1ccc2c3ccnc(Cl)c3n(CC#N)c2c1 [AnnH75, 2-(1-Chloro-7-methoxy-9H-pyrido[3,4-b]indol-9-yl)acetonitrile] | 119% |  |  | IC50 [4]: > 10000 nM; remaining activity at 1 µM [2]: 10%
3 | Cc1nccc2c3ccc(Cl)c(Cl)c3n(CCCN(C)C)c12 [AnnH71, 3-(7,8-Dichloro-1-methyl-9H-pyrido[3,4-b]-9-yl)-N,N-dimethylpropan-1-amine] | 110% | 47% | 90% | melting point: 126 to 128 °C
4 | COc1ccc2c3ccnc(C)c3n(CC#N)c2c1 [AnnH31, 2-(7-Methoxy-1-methyl-9H-pyrido[3,4-b]indol-9-yl)-acetonitrile] | 75% | 8% | 11% | Selectivity for DYRK1A over MAO-A [5]: 40
5 | COc1ccc2c3ccnc(C)c3n(C(C)C#N)c2c1 (racemic) [AnnH43, (±)-2-(7-Methoxy-1-methyl-9H-pyrido[3,4-b]indol-9-yl)propanenitrile] | 102% | 5% | 10% | Selectivity for DYRK1A over MAO-A [5]: 26
6 | COc1ccc2c(c1)[nH]c1c(C)nccc12 [harmine] |  |  |  | remaining activity at 1 µM [1]: 3%; remaining activity at 1 µM [2]: 27%; DYRK2 inhibition [6]: only inhibited at much higher concentrations; DYRK3 inhibition [7]: only inhibited at much higher concentrations; IC50 [8]: […]; DYRK4 inhibition [9]: basically resistant; IC50 [10]: […]; remaining activity at 1 µM [3]: 23%
7 | O=c1[nH]ccc2c1[nH]c1c(Cl)c(Cl)ccc12 [AnnH65, 7,8-Dichloro-2,9-dihydro-1H-pydrido[3,4-b]indol-1-one] |  | 100% |  | Solubility [11]: very poor
8 | COc1ccc2c(c1)[nH]c1cnccc12 [norharmine (AnnH90), norharmine] | 45% | 36% | 26% | 
9 | COc1ccc2c3ccnc(Cl)c3n(CCCN(C)C)c2c1 [AnnH77, 3-(1-Chloro-7-methoxy-9H-pyrido[3,4-b]indol-9-yl)-N,N-dimethylpropan-1-amine] | 123% | 63% | 86% | melting point: 86 to 87 °C
10 | C#CCn1c2c(C)nccc2c2ccc(Cl)c(Cl)c21 [AnnH67, 7,8-Dichloro-1-methyl-9-(prop-2-yn-1-yl)-9H-pyrido[3,4-b]indole] | 122% | 17% | 34% | 
11 | CCOC(=O)Cn1c2c(C)nccc2c2ccc(Cl)c(Cl)c21 [AnnH66, Ethyl 2-(7,8-Dichloro-1-methyl-9H-pyrido[3,4-b]-9-yl)acetate] | 78% | 26% | 71% | 
12 | Cc1nccc2c1[nH]c1cc(OCCN(C)C)ccc12 [AnnH62] | 22% | 95% | 100% | Factor of reduction of MAO-A inhibition [12]: 60
13 | COc1ccc2c(c1)[nH]c1c(/C=C/c3ccccc3)nccc12 [AnnH18] | 100% | 27% | 58% | 
14 | CNC(=O)Cn1c2cc(OC)ccc2c2ccnc(C)c21 [AnnH30, 2-(7-Methoxy-1-methyl-9H-pyrido[3,4-b]indol-9-yl)-N-methylacetamide] | 24% | 64% | 87% | 
15 | COc1ccc2c(c1)C(O)c1c-2ccnc1C (racemic) [AnnHT3, (±)-7-Methoxy-1-methyl-9H-indeno-[2,1-c]pyridin-9-ol] | 34% | 59% | 76% | 
16 | COc1ccc2c3ccnc(C)c3n(CC(=O)N(C)C)c2c1 [AnnH34, 2-(7-Methoxy-1-methyl-9H-pyrido[3,4-b]indol-9-yl)-N,N-dimethylacetamide] | 130% | 75% | 78% | 
